Key:
[1] = biological target: VEGFR2 (purified cytoplasmic domain KDR protein) (Homo sapiens (Human), UniProt P35968); experiment: VEGFR2 Kinase Assay (biochemical KDR kinase assay, ELISA); settings: 2.7 μM ATP, 15 minute incubation at 30° C.; read-out: VEGFR2 Enzyme Assay (IC50 nM)
Procedure: Biochemical KDR kinase assays were performed in 96 well microtiter plates that were coated overnight with 75 μg/well of poly-Glu-Tyr (4:1) in 10 mM Phosphate Buffered Saline (PBS), pH 7.4. The coated plates were washed with 2 mls per well PBS+0.05% Tween-20 (PBS-T), blocked by incubation with PBS containing 1% BSA, then washed with 2 mls per well PBS-T prior to starting the reaction. […] Reactions were initiated by the addition 20 ul per well of kinase buffer containing 200-300 ng purified cytoplasmic domain KDR protein (BPS Bioscience, San Diego, Calif.). Following a 15 minute incubation at 30° C., the reactions were washed 2 mls per well PBS-T. 100 μl of a monoclonal anti-phosphotyrosine antibody-peroxidase conjugate diluted 1:10,000 in PBS-T was added to the wells for 30 minutes. Following a 2 mls per well wash with PBS-Tween-20, 100 μl of O-Phenylenediamine Dihydrochloride in phosphate-citrate buffer, containing urea hydrogen peroxide, was added to the wells for 7-10 minutes as a colorimetric substrate for the peroxidase. The reaction was terminated by the addition of 100 μl of 2.5NH2SO4 to each well and read using a microplate ELISA reader set at 492 nm. IC50 values for compound inhibition were calculated directly from graphs of optical density (arbitrary units) versus compound concentration following subtraction of blank values.

[2] = biological target: PDGFRβ (purified cytoplasmic domain PDGFR-b protein) (Homo sapiens (Human), UniProt P09619); experiment: PDGFRβ Kinase Assay (biochemical, ELISA); settings: 36 μM ATP, 60 minute incubation at 30° C.; read-out: PDGFRβ Enzyme Assay (IC50 nM)
Procedure: Biochemical PDGFRβ kinase assays were performed in 96 well microtiter plates that were coated overnight with 75 μg of poly-Glu-Tyr (4:1) in 10 mM Phosphate Buffered Saline (PBS), pH 7.4. The coated plates were washed with 2 mls per well PBS+0.05% Tween-20 (PBS-T), blocked by incubation with PBS containing 1% BSA, then washed with 2 mls per well PBS-T prior to starting the reaction. Reactions were carried out in 100 μL reaction volumes containing 36 μM ATP in kinase buffer (50 mM Hepes buffer pH 7.4, 20 mM MgCl2, 0.1 mM MnCl2 and 0.2 mM Na3VO4). Test compounds were reconstituted in 100% DMSO and added to the reaction to give a final DMSO concentration of 5%. Reactions were initiated by the addition 20 ul per well of kinase buffer containing 200-300 ng purified cytoplasmic domain PDGFR-b protein (Millipore). Following a 60 minute incubation at 30° C., the reactions were washed 2 mls per well PBS-T. 100 μl of a monoclonal anti-phosphotyrosine antibody-peroxidase conjugate diluted 1:10,000 in PBS-T was added to the wells for 30 minutes. Following a 2 mls per well wash with PBS-Tween-20, 100 μl of O-Phenylenediamine Dihydrochloride in phosphate-citrate buffer, containing urea hydrogen peroxide, was added to the wells for 7-10 minutes as a colorimetric substrate for the peroxidase. The reaction was terminated by the addition of 100 μl of 2.5NH2SO4 to each well and read using a microplate ELISA reader set at 492 nm. IC50 values for compound inhibition were calculated directly from graphs of optical density (arbitrary units) versus compound concentration following subtraction of blank values.

VEGFR1 = VEGFR1 (Homo sapiens (Human), UniProt P17948); experiment: VEGFR1 Enzyme Assay; format: biochemical
Chain of VEGFR1 (P17948 27-1338, species assumed): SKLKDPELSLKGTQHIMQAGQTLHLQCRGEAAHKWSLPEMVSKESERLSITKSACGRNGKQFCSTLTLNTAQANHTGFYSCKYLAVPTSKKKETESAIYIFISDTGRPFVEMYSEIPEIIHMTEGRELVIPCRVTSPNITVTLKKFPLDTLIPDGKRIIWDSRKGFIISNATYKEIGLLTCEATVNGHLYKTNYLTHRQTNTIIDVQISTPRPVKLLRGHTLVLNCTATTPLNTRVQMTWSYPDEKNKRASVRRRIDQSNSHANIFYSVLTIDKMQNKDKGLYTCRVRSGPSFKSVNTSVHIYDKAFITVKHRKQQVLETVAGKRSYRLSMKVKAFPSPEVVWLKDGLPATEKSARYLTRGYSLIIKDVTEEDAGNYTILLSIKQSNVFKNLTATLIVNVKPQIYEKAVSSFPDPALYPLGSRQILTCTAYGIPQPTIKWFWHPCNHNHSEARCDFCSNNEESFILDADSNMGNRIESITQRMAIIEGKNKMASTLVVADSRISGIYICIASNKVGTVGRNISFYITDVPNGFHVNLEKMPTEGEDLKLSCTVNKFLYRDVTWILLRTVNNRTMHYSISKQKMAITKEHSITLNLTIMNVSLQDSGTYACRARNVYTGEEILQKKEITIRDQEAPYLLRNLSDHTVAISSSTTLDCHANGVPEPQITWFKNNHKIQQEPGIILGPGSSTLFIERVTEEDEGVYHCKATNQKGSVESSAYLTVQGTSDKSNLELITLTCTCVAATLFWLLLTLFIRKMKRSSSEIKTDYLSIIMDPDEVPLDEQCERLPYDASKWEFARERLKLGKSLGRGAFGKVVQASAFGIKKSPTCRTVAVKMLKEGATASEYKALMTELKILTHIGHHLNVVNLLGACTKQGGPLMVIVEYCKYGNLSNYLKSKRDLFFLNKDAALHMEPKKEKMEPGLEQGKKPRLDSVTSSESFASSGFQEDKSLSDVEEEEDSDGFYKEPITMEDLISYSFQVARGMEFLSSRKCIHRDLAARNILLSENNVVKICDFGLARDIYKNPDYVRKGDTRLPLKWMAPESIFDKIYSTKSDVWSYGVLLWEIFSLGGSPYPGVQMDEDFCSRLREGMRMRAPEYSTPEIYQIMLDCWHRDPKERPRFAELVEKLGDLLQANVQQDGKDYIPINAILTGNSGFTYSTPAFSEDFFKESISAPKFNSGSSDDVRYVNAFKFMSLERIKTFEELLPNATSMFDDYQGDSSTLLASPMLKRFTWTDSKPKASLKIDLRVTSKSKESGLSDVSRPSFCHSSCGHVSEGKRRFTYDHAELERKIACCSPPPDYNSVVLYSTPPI

Chain of VEGFR2 (purified cytoplasmic domain KDR protein) (P35968 786-1356): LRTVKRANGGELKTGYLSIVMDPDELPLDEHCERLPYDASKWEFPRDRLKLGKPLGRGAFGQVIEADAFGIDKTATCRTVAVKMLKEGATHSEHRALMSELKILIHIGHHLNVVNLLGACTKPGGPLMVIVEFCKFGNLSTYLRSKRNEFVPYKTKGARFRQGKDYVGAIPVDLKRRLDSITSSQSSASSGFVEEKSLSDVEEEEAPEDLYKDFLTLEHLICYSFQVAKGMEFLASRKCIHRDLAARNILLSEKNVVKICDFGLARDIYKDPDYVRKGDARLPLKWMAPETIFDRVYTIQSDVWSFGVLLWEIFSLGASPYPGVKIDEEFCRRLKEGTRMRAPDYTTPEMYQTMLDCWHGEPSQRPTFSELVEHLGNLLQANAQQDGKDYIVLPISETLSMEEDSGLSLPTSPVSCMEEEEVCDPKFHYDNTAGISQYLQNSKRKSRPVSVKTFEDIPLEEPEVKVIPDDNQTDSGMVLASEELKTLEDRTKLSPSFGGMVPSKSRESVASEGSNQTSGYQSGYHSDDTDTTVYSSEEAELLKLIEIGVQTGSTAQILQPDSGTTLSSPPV
Chain of PDGFRβ (purified cytoplasmic domain PDGFR-b protein) (P09619 554-1106): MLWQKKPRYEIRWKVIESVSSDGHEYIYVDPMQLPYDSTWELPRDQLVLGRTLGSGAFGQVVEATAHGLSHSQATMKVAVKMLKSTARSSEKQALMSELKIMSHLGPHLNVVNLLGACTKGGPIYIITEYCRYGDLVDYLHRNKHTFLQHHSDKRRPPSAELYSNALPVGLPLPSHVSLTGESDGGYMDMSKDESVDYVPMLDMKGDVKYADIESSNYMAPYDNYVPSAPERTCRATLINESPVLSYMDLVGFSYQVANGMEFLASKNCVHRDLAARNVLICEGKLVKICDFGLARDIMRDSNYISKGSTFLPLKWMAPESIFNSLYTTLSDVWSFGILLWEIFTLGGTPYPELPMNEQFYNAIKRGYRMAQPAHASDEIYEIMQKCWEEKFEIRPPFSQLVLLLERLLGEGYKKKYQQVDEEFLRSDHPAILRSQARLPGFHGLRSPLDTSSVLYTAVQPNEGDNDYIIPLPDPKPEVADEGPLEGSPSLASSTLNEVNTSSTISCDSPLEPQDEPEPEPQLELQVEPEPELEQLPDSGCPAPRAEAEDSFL

| SMILES | IC50 [1] [nM] | IC50 [2] [nM] | IC50 (VEGFR1) [nM] |
| --- | --- | --- | --- |
| NC(=O)c1c(-c2ccc([N+](=O)[O-])cc2)nsc1NC(=O)N1CCCC1=O [Example 45, 3-(4-Nitro-phenyl)-5-[(2-oxo-pyrrolidine-1-carbonyl)-amino]-isothiazole-4-carboxylic acid amide] | > 10000 |  |  |
| NC(=O)c1c(-c2ccc(NC(=O)c3cccc(C(F)(F)F)c3)cc2)nsc1NC(=O)NCCCN1CCOCC1 [Example 11, 5-({[(3-morpholin-4-ylpropyl)amino]carbonyl}amino)-3-(4-{[3-(trifluoromethyl)benzoyl]amino}phenyl)isothiazole-4-carboxamide] |  | > 1000 | > 1000 |
| COCCCNC(=O)Nc1snc(-c2ccc(N)cc2)c1C(N)=O [Example 9, 3-(4-aminophenyl)-5-({[(3-methoxypropyl)amino]carbonyl}amino)isothiazole-4-carboxamide] |  | > 10000 | > 1000 |
| NC(=O)c1c(-c2ccc(N)cc2)nsc1NC(=O)NCCCN1CCOCC1 [Example 2, 3-(4-aminophenyl)-5-({[(3-morpholin-4-ylpropyl)amino]carbonyl}amino)isothiazole-4-carboxamide] |  | > 10000 |  |
| Cc1ccc(F)c(NC(=O)Nc2ccc(-c3snc(N)c3C(N)=O)cc2)c1 [Example 69, 3-Amino-5-[4-({[(2-fluoro-5-methylphenyl)amino]carbonyl}amino)phenyl]isothiazole-4-carboxamide] |  | 48 |  |
| Cc1ccc(NC(=O)Nc2ccc(-c3nsc(NC(=O)NCCCN4CCCC4)c3C(N)=O)cc2)cc1 [Example 68, 3-[4-({[(4-Methylphenyl)amino]carbonyl}amino)phenyl]-5-({[(3-pyrrolidin-1-ylpropyl)amino]carbonyl}amino)isothiazole-4-carboxamide] |  | 12 |  |
| Cc1ccc(F)c(NC(=O)Nc2ccc(-c3snc(NCCCN4CCOCC4)c3C(N)=O)cc2)c1 [Example 70, 5-[4-({[(2-Fluoro-5-methylphenyl)amino]carbonyl}amino)phenyl]-3-[(3-morpholin-4-ylpropyl)amino]isothiazole-4-carboxamide] |  | 70 |  |
| Cc1ccc(NC(=O)Nc2ccc(-c3nsc(N)c3C(N)=O)cc2)cc1 [Example 59, 5-Amino-3-[4-({[(4-methylphenyl)amino]carbonyl}amino)phenyl]isothiazole-4-carboxamide] |  | 60 |  |
| NC(=O)c1c(-c2ccc(N)cc2)nsc1NC(=O)NCCCN1CCCC1 [Example 67, 3-(4-Aminophenyl)-5-({[(3-pyrrolidin-1-ylpropyl)amino]carbonyl}amino)isothiazole-4-carboxamide] | > 1000 |  |  |
| NC(=O)c1c(-c2ccc([N+](=O)[O-])cc2)nsc1NC(=O)NCCCN1CCOCC1 [Example 1, 5-({[(3-morpholin-4-ylpropyl)amino]carbonyl}amino)-3-(4-nitrophenyl)isothiazole-4-carboxamide] | > 10000 | > 10000 | > 10000 |
| Cc1cccc(NC(=O)Nc2ccc(-c3nsc(NC(=O)NCCCN4CCOCC4)c3C(N)=O)cc2)c1 [Example 5, 3-[4-({[(3-methylphenyl)amino]carbonyl}amino)phenyl]-5-({[(3-morpholin-4-ylpropyl)amino]carbonyl}amino)isothiazole-4-carboxamide] |  | 10 |  |
| Cc1ccc(NC(=O)Nc2ccc(-c3nsc(NC(=O)NCCCN4CCOCC4)c3C(N)=O)cc2)cc1 [Example 7, 3-[4-({[(4-methylphenyl)amino]carbonyl}amino)phenyl]-5-({[(3-morpholin-4-ylpropyl)amino]carbonyl}amino)isothiazole-4-carboxamide] |  | 12 |  |
| NC(=O)c1c(-c2ccc(NC(=O)Nc3cc(C(F)(F)F)ccc3F)cc2)nsc1NC(=O)NCCCN1CCOCC1 [Example 6, 3-{4-[({[2-fluoro-5-(trifluoromethyl)phenyl]amino}carbonyl)amino]phenyl}-5-({[(3-morpholin-4-ylpropyl)amino]carbonyl}amino)isothiazole-4-carboxamide] |  | 24 |  |
| Cc1ccc(NC(=O)Nc2ccc(-c3nsc(NC(=O)NCCCC(=O)O)c3C(N)=O)cc2)cc1 [Example 48, 4-{[({4-(Aminocarbonyl)-3-[4-({[(4-methylphenyl)amino]carbonyl}amino)phenyl]isothiazol-5-yl}amino)carbonyl]amino}butanoic acid] |  | 10 |  |
| NC(=O)c1c(-c2ccc(NC(=O)Nc3ccccc3)cc2)nsc1NC(=O)NCCCN1CCOCC1 [Example 3, 3-{4-[(anilinocarbonyl)amino]phenyl}-5-({[(3-morpholin-4-ylpropyl)amino]carbonyl}amino)isothiazole-4-carboxamide] |  | 21 |  |
| NC(=O)c1c(-c2cccc([N+](=O)[O-])c2)nsc1N [Example 61, 5-Amino-3-(3-nitrophenyl)isothiazole-4-carboxamide] | > 10000 |  |  |

The next lines start with the values.

| IC50 [1] [nM] | IC50 [2] [nM] | IC50 (VEGFR1) [nM] | SMILES |
| --- | --- | --- | --- |
|  | 844 |  | NC(=O)c1c(-c2cccc(NC(=O)c3cccc(C(F)(F)F)c3)c2)nsc1N [Example 64, 5-Amino-3-(3-{[3-(trifluoromethyl)benzoyl]amino}phenyl)isothiazole-4-carboxamide] |
|  | 70 |  | Cc1ccc(F)c(NC(=O)Nc2ccc(-c3nsc(N)c3C(N)=O)cc2)c1 [Example 60, 5-Amino-3-[4-({[(2-fluoro-5-methylphenyl)amino]carbonyl}amino)phenyl]isothiazole-4-carboxamide] |
| > 10000 |  |  | NC(=O)c1c(-c2ccc(N)cc2)nsc1N [Example 58, 5-Amino-3-(4-aminophenyl)isothiazole-4-carboxamide] |
|  | 47 |  | Cc1ccc(F)c(NC(=O)Nc2ccc(-c3nsc(NC(=O)NCCCN4CCOCC4)c3C(N)=O)cc2)c1 [Example 4, 3-[4-({[(2-fluoro-5-methylphenyl)amino]carbonyl}amino)phenyl]-5-({[(3-morpholin-4-ylpropyl)amino]carbonyl}amino)isothiazole-4-carboxamide] |
| > 10000 |  |  | NC(=O)c1c(-c2cccc(N)c2)nsc1N [Example 62, 5-Amino-3-(3-aminophenyl)isothiazole-4-carboxamide] |
| > 10000 | > 1000 |  | NC(=O)c1c(-c2cccc(NC(=O)Nc3ccccc3)c2)nsc1N [Example 65, 5-Amino-3-{3-[(anilinocarbonyl)amino]phenyl}isothiazole-4-carboxamide] |
|  | 13 |  | Cc1ccc(NC(=O)Nc2ccc(-c3nsc(NC(=O)NCCCO)c3C(N)=O)cc2)cc1 [Example 56, 5-({[(3-Hydroxypropyl)amino]carbonyl}amino)-3-[4-({[(4-methylphenyl)amino]carbonyl}amino)phenyl]isothiazole-4-carboxamide] |
